From patent US20250136553A1, “ACYLSULFONAMIDE KAT6A INHIBITORS” (Olema Pharmaceuticals, Inc., priority 2023, published 2025) come the findings set out here.

For this assay, the target named is human-KAT6A (MYST domain 507-778 aa) (Homo sapiens (Human), UniProt Q92794). The assay can be described thus: KAT6A biochemical assay (TR-FRET). The conditions noted are these: for IC50: TR-FRET, histone H4 peptide 200 nM, acetyl-CoA 600 nM, read-out: KAT6A IC50. In short, it runs like this:
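KAT6A MYST domain preincubated with compound 30 min at 25° C, then reacted 60 min at 25° C with 200 nM biotin-H4 peptide and 600 nM acetyl-CoA (final). Europium anti-acetyl-lysine/streptavidin-APC TR-FRET read (Ex 340, Em 615/665 nm); % inhibition from 665/615 ratio, IC50 by sigmoidal fit.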
On the technique in general: Time-resolved FRET reads energy transfer from a long-lived donor to a nearby acceptor.

human-KAT6A (MYST domain 507-778 aa), sequence (Q92794 507-778): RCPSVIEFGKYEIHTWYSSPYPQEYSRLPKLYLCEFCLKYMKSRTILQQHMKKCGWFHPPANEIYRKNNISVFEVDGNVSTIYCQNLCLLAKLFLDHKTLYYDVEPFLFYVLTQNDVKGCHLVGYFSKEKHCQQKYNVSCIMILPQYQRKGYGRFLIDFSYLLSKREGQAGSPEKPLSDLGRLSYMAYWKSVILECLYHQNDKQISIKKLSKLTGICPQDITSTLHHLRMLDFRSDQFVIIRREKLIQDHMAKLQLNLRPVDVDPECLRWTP

One may read the IC50 as the midpoint of a concentration-inhibition curve. `COc1ccc(C(C)(C)C)cc1S(=O)(=O)NC(=O)c1ccc(Cn2cccn2)cn1` [Compound 201, 5-((1H-pyrazol-1-yl)methyl)-N-((5-(tert-butyl)-2-methoxyphenyl)sulfonyl)picolinamide]: the half-maximal inhibitory concentration (IC50) is 731 nM.
On the same count and under the same terms, with `COc1cc(C(=O)NS(=O)(=O)c2c(OC)cccc2OC)cnc1Cn1cccn1` [Compound 202, 6-((1H-pyrazol-1-yl)methyl)-N-((2,6-dimethoxyphenyl)sulfonyl)-5-methoxynicotinamide] the figure was 104 nM.
Same read-out and setting: with `CCc1ccc(OC)c(S(=O)(=O)NC(=O)c2ccc(Cn3cccn3)c(OC)n2)c1` [Compound 204, 5-((1H-pyrazol-1-yl)methyl)-N-((5-ethyl-2-methoxyphenyl)sulfonyl)-6-methoxypicolinamide] the figure was 6 nM; with `COc1ccc(C(C)(C)C)cc1S(=O)(=O)NC(=O)c1ccc(Cn2cccn2)c(OC)n1` [Compound 205, 5-((1H-pyrazol-1-yl)methyl)-N-((5-(tert-butyl)-2-methoxyphenyl)sulfonyl)-6-methoxypicolinamide], 8 nM; with `COc1ccc(C2CC2)cc1S(=O)(=O)NC(=O)c1ccc(Cn2cccn2)c(OC)n1` [Compound 206, 5-((1H-pyrazol-1-yl)methyl)-N-((5-cyclopropyl-2-methoxyphenyl)sulfonyl)-6-methoxypicolinamide], 8 nM.
Same read-out and setting: the result for `COc1ccc(C(F)(F)F)cc1S(=O)(=O)NC(=O)c1ccc(Cn2cccn2)c(OC)n1` [Compound 207, 5-((1H-pyrazol-1-yl)methyl)-6-methoxy-N-((2-methoxy-5-(trifluoromethyl)phenyl)sulfonyl)picolinamide] reads 10 nM; that for `COc1ccccc1S(=O)(=O)NC(=O)c1ccc(Cn2cccn2)c(OC)n1` [Compound 208, 5-((1H-pyrazol-1-yl)methyl)-6-methoxy-N-((2-methoxyphenyl)sulfonyl)picolinamide], 22 nM.
For the compound `COc1cccc(OC)c1S(=O)(=O)NC(=O)c1ccc(Cn2cccn2)c(C)n1` [Compound 209, 5-((1H-pyrazol-1-yl)methyl)-N-((2,6-dimethoxyphenyl)sulfonyl)-6-methylpicolinamide], the IC50 is 71 nM.
Same read-out and setting: with `CCc1ccc(OC)c(S(=O)(=O)NC(=O)c2cc(OC)c(Cn3cccn3)cn2)c1` [Compound 210, 5-((1H-pyrazol-1-yl)methyl)-N-((5-ethyl-2-methoxyphenyl)sulfonyl)-4-methoxypicolinamide] the figure was 64 nM; with `COc1ccc2c(c1S(=O)(=O)NC(=O)c1ccc(Cn3cccn3)c(OC)n1)OCC2` [Compound 211, 5-((1H-pyrazol-1-yl)methyl)-6-methoxy-N-((6-methoxy-2,3-dihydrobenzofuran-7-yl)sulfonyl)picolinamide], 8 nM; with `COc1cc(C(=O)NS(=O)(=O)c2c(OC)cccc2OC)ncc1Cn1cccn1` [Compound 212, 5-((1H-pyrazol-1-yl)methyl)-N-((2,6-dimethoxyphenyl)sulfonyl)-4-methoxypicolinamide], 140 nM.
The same measure, in the same setting: with `COc1cc2c(cc1S(=O)(=O)NC(=O)c1ccc(Cn3cccn3)c(OC)n1)CCC2` [Compound 213, 5-((1H-pyrazol-1-yl)methyl)-6-methoxy-N-((6-methoxy-2,3-dihydro-1H-inden-5-yl)sulfonyl)picolinamide] the figure was 12 nM; with `COc1ccc(C)cc1S(=O)(=O)NC(=O)c1ccc(Cn2cccn2)c(OC)n1` [Compound 214, 5-((1H-pyrazol-1-yl)methyl)-6-methoxy-N-((2-methoxy-5-methylphenyl)sulfonyl)picolinamide], 12 nM.
Take `COc1cccc(OC)c1S(=O)(=O)NC(=O)c1ccc(Cn2cccn2)c(OC(F)F)n1` [Compound 215, 5-((1H-pyrazol-1-yl)methyl)-6-(difluoromethoxy)-N-((2,6-dimethoxyphenyl)sulfonyl)picolinamide]: where the note is “@ 1 μM, reported where IC50 could not be determined, read-out: Percent inhibition at specific concentration (KAT6A)”, the inhibition at 1 µM is 16%.
Consider `COc1ccc2c(c1S(=O)(=O)NC(=O)c1ccc(Cn3cccn3)c(OC)n1)CCC2` [Compound 216, 5-((1H-pyrazol-1-yl)methyl)-6-methoxy-N-((5-methoxy-2,3-dihydro-1H-inden-4-yl)sulfonyl)picolinamide], for which the half-maximal inhibitory concentration (IC50) was determined as 12 nM.
Turning to `COc1ccc2c(c1S(=O)(=O)NC(=O)c1ccc(Cn3cccn3)c(OC)n1)CCCC2` [Compound 217, 5-((1H-pyrazol-1-yl)methyl)-6-methoxy-N-((2-methoxy-5,6,7,8-tetrahydronaphthalen-1-yl)sulfonyl)picolinamide], the IC50 is 11 nM.
With `CCOc1cccc(OC)c1S(=O)(=O)NC(=O)c1ccc(Cn2cccn2)c(OC)n1` [Compound 218, 5-((1H-pyrazol-1-yl)methyl)-N-((2-ethoxy-6-methoxyphenyl)sulfonyl)-6-methoxypicolinamide], the IC50 came to 8 nM.
Still for that read-out and setting: the result for `COc1cccc(OC2CCC2)c1S(=O)(=O)NC(=O)c1ccc(Cn2cccn2)c(OC)n1` [Compound 219, 5-((1H-pyrazol-1-yl)methyl)-N-((2-cyclobutoxy-6-methoxyphenyl)sulfonyl)-6-methoxypicolinamide] reads 9 nM.
Turning to `COc1cccc(OC(F)F)c1S(=O)(=O)NC(=O)c1ccc(Cn2cccn2)c(OC)n1` [Compound 220, 5-((1H-pyrazol-1-yl)methyl)-N-((2-(difluoromethoxy)-6-methoxyphenyl)sulfonyl)-6-methoxypicolinamide], the IC50 stood at 7 nM.
Consider `COc1cccc(OC(C)C)c1S(=O)(=O)NC(=O)c1ccc(Cn2cccn2)c(OC)n1` [Compound 221, 5-((1H-pyrazol-1-yl)methyl)-N-((2-isopropoxy-6-methoxyphenyl)sulfonyl)-6-methoxypicolinamide], for which the IC50 stood at 5 nM.
`COc1ccc(C)c(OC)c1S(=O)(=O)NC(=O)c1ccc(Cn2cccn2)c(OC)n1` [Compound 222, 5-((1H-pyrazol-1-yl)methyl)-N-((2,6-dimethoxy-3-methylphenyl)sulfonyl)-6-methoxypicolinamide]: the IC50 is 18 nM.
For the compound `COc1ccc(C2CC2)c(OC)c1S(=O)(=O)NC(=O)c1ccc(Cn2cccn2)c(OC)n1` [Compound 223, 5-((1H-pyrazol-1-yl)methyl)-N-((3-cyclopropyl-2,6-dimethoxyphenyl)sulfonyl)-6-methoxypicolinamide], the IC50 came to 17 nM.
On the same count and under the same terms, the result for `COc1cc(OC)c(S(=O)(=O)NC(=O)c2ccc(Cn3cccn3)c(OC)n2)c(OC)c1` [Compound 224, 5-((1H-pyrazol-1-yl)methyl)-6-methoxy-N-((2,4,6-trimethoxyphenyl)sulfonyl)picolinamide] reads 11 nM.
Take `CCc1ccc(OC)c(S(=O)(=O)NC(=O)c2ccc(Cn3cccn3)c(OC)n2)c1OC` [Compound 225, 5-((1H-pyrazol-1-yl)methyl)-N-((3-ethyl-2,6-dimethoxyphenyl)sulfonyl)-6-methoxypicolinamide]: the IC50 was found to be 10 nM.
With `COc1ccc(S(=O)(=O)NC(=O)c2ccc(Cn3cccn3)c(OC)n2)c(OC)c1` [Compound 226, 5-((1H-pyrazol-1-yl)methyl)-N-((2,4-dimethoxyphenyl)sulfonyl)-6-methoxypicolinamide], the 50% inhibitory concentration (IC50) turned out to be 27 nM.
The same measure, in the same setting: with `COc1cccc(OCC(F)(F)F)c1S(=O)(=O)NC(=O)c1ccc(Cn2cccn2)c(OC)n1` [Compound 227, 5-((1H-pyrazol-1-yl)methyl)-6-methoxy-N-((2-methoxy-6-(2,2,2-trifluoroethoxy)phenyl)sulfonyl)picolinamide] the figure was 11 nM.
